Data reported in ChEMBL document CHEMBL1154782, “Discovery of Trp-His and His-Arg analogues as new structural classes of short antimicrobial peptides” (J Med Chem, 2009).
In brackets after ≈: the same amount, converted by molar mass. Where a SMILES comes first, the peptide text is derived from it. The star is where a group is joined. NHBn = c1ccc(CN*)cc1

Legend:
[1] = system: Staphylococcus epidermidis; test: Antibacterial activity against methicillin-resistant Staphylococcus epidermidis DSM 50160384 after 15 to 18 hrs under aerobic condition by modified broth microdilution method; format: functional
Candida albicans [2] = test: Antifungal activity against Candida albicans ATCC 10231 after 15 to 18 hrs under aerobic condition by modified broth microdilution method; format: functional
Staphylococcus aureus [3] = test: Antibacterial activity against methicillin-resistant Staphylococcus aureus DSM 50128509 after 15 to 18 hrs under aerobic condition by modified broth microdilution method; format: functional
Staphylococcus aureus [4] = test: Antibacterial activity against methicillin-resistant Staphylococcus aureus DSM 50128509; format: functional, organism-based
Klebsiella pneumoniae = test: Antibacterial activity against Klebsiella pneumoniae ATCC 700603 after 15 to 18 hrs under aerobic condition by modified broth microdilution method; format: functional
[5] = system: Staphylococcus epidermidis; test: Antibacterial activity against methicillin-resistant Staphylococcus epidermidis DSM 50160384; format: functional, organism-based
Pseudomonas aeruginosa = test: Antibacterial activity against Pseudomonas aeruginosa ATCC 9027 after 15 to 18 hrs under aerobic condition by modified broth microdilution method; format: functional
Candida albicans [6] = test: Antifungal activity against Candida albicans ATCC 10231; format: functional, organism-based
Escherichia coli [7] = test: Antibacterial activity against Escherichia coli ATCC 35218 after 15 to 18 hrs under aerobic condition by modified broth microdilution method; format: functional
L929 = test: Cytotoxicity against mouse L929 cells up to 200 ug/mL after 5 days by MTT assay; format: cell-based; conditions: l929, 120 h
Escherichia coli [8] = test: Antibacterial activity against Escherichia coli ATCC 35218; format: functional, organism-based

Structure (SMILES) | MIC [1] | MIC (Candida albicans [2]) | MIC (Staphylococcus aureus [3]) | IC50 (Staphylococcus aureus [4]) | MIC (Klebsiella pneumoniae) | IC50 [5] | MIC (Pseudomonas aeruginosa) | IC50 (Candida albicans [6]) | MIC (Escherichia coli [7]) | Activity (L929) | IC50 (Escherichia coli [8])
N[C@@H](Cc1c[nH]c2ccccc12)C(=O)N[C@@H](Cc1c[nH]cn1)C(=O)NCc1ccccc1 (H-Trp-His-NHBn) | 200 µg/mL (≈ 465 µM) | 200 µg/mL (≈ 465 µM) | 200 µg/mL (≈ 465 µM) | 12.3 µg/mL (≈ 28.5 µM) | > 200 µg/mL | 29 µg/mL (≈ 67.3 µM) | > 200 µg/mL | 15.2 µg/mL (≈ 35.2 µM) | > 200 µg/mL | Non-toxic | –
COC(=O)[C@H](Cc1c[nH]c(C(C)C)n1)NC(=O)[C@H](Cc1c[nH]c2ccccc12)NC(=O)OC(C)(C)C | > 200 µg/mL | > 200 µg/mL | > 200 µg/mL | – | > 200 µg/mL | – | > 200 µg/mL | – | > 200 µg/mL | Non-toxic | –
CC(C)c1nc(C[C@H](NC(=O)[C@@H](N)Cc2c[nH]c3ccccc23)C(=O)NCc2ccccc2)c[nH]1 | 100 µg/mL (≈ 212 µM) | > 200 µg/mL | > 200 µg/mL | – | > 200 µg/mL | 12.8 µg/mL (≈ 27.1 µM) | > 200 µg/mL | – | > 200 µg/mL | Non-toxic | –
COC(=O)[C@H](CCCNC(=N)N)NC(=O)[C@@H](N)Cc1c[nH]c(C2CCCCC2)n1 | 10 µg/mL (≈ 24.5 µM) | 200 µg/mL (≈ 491 µM) | 50 µg/mL (≈ 123 µM) | 20.9 µg/mL (≈ 51.4 µM) | > 200 µg/mL | 1.92 µg/mL (≈ 4.71 µM) | > 200 µg/mL | 27.5 µg/mL (≈ 67.6 µM) | > 200 µg/mL | Non-toxic | –
N=C(N)NCCC[C@H](NC(=O)[C@@H](N)Cc1c[nH]cn1)C(=O)NCc1ccccc1 (H-His-Arg-NHBn) | 100 µg/mL (≈ 250 µM) | 200 µg/mL (≈ 499 µM) | 100 µg/mL (≈ 250 µM) | 7.04 µg/mL (≈ 17.6 µM) | > 200 µg/mL | 8.07 µg/mL (≈ 20.2 µM) | > 200 µg/mL | 16.6 µg/mL (≈ 41.5 µM) | > 200 µg/mL | Non-toxic | –
COC(=O)[C@H](Cc1c[nH]c(C(C)(C)C)n1)NC(=O)[C@@H](N)Cc1c[nH]c2ccccc12 | 100 µg/mL (≈ 243 µM) | > 200 µg/mL | 10 µg/mL (≈ 24.3 µM) | 4.21 µg/mL (≈ 10.2 µM) | > 200 µg/mL | 6.73 µg/mL (≈ 16.4 µM) | > 200 µg/mL | – | 200 µg/mL (≈ 486 µM) | Non-toxic | 19 µg/mL (≈ 46.2 µM)
C[C@@H]1[C@H](O)[C@@H](C)/C=C/C=C/C=C/C=C/C=C/C=C/C=C/[C@H](O[C@@H]2O[C@H](C)[C@@H](O)[C@H](N)[C@@H]2O)C[C@@H]2O[C@](O)(C[C@@H](O)C[C@@H](O)[C@H](O)CC[C@@H](O)C[C@@H](O)CC(=O)O[C@H]1C)C[C@H](O)[C@H]2C(=O)O [AMPHOTERICIN B] | – | – | – | – | – | – | – | 0.34 µg/mL (≈ 0.368 µM) | – | – | –
COC(=O)[C@H](CCCNC(=N)N)NC(=O)[C@@H](N)Cc1c[nH]cn1 (H-His-Arg-OMe) | 50 µg/mL (≈ 154 µM) | > 200 µg/mL | 100 µg/mL (≈ 307 µM) | 4.88 µg/mL (≈ 15 µM) | > 200 µg/mL | 2.72 µg/mL (≈ 8.36 µM) | > 200 µg/mL | – | > 200 µg/mL | Non-toxic | –
COC(=O)[C@H](CCCNC(=N)N)NC(=O)[C@H](Cc1c[nH]c(C(C)C)n1)NC(=O)OC(C)(C)C | 200 µg/mL (≈ 428 µM) | 200 µg/mL (≈ 428 µM) | 200 µg/mL (≈ 428 µM) | 12.4 µg/mL (≈ 26.6 µM) | > 200 µg/mL | 13.1 µg/mL (≈ 28 µM) | > 200 µg/mL | 20.9 µg/mL (≈ 44.6 µM) | > 200 µg/mL | Non-toxic | –
CC(C)(C)OC(=O)N[C@@H](Cc1c[nH]c2ccccc12)C(=O)N[C@@H](Cc1c[nH]c(C(C)(C)C)n1)C(=O)NCc1ccccc1 | > 200 µg/mL | > 200 µg/mL | > 200 µg/mL | – | > 200 µg/mL | – | > 200 µg/mL | – | > 200 µg/mL | Non-toxic | –
COC(=O)[C@H](Cc1c[nH]c(C2CCC2)n1)NC(=O)[C@H](Cc1c[nH]c2ccccc12)NC(=O)OC(C)(C)C | 100 µg/mL (≈ 196 µM) | > 200 µg/mL | 100 µg/mL (≈ 196 µM) | 2.95 µg/mL (≈ 5.79 µM) | > 200 µg/mL | 5.44 µg/mL (≈ 10.7 µM) | > 200 µg/mL | – | 200 µg/mL (≈ 392 µM) | Non-toxic | 24.6 µg/mL (≈ 48.3 µM)
COC(=O)[C@H](CCCNC(=N)N)NC(=O)[C@@H](N)Cc1c[nH]c(C(C)C)n1 | 50 µg/mL (≈ 136 µM) | > 200 µg/mL | 50 µg/mL (≈ 136 µM) | 4.82 µg/mL (≈ 13.1 µM) | > 200 µg/mL | 5.42 µg/mL (≈ 14.8 µM) | > 200 µg/mL | – | 200 µg/mL (≈ 544 µM) | Non-toxic | 9.98 µg/mL (≈ 27.2 µM)
CC(C)(C)OC(=O)N[C@@H](Cc1c[nH]c2ccccc12)C(=O)N[C@@H](Cc1c[nH]c(C2CCC2)n1)C(=O)NCc1ccccc1 | > 200 µg/mL | 200 µg/mL (≈ 342 µM) | 200 µg/mL (≈ 342 µM) | 22.4 µg/mL (≈ 38.2 µM) | > 200 µg/mL | – | > 200 µg/mL | 33.2 µg/mL (≈ 56.7 µM) | > 200 µg/mL | Non-toxic | –
CC(C)(C)OC(=O)N[C@@H](Cc1c[nH]c(C2CCCCC2)n1)C(=O)N[C@@H](CCCNC(=N)N)C(=O)NCc1ccccc1 | 100 µg/mL (≈ 172 µM) | > 200 µg/mL | 100 µg/mL (≈ 172 µM) | 12.1 µg/mL (≈ 20.7 µM) | > 200 µg/mL | 18.4 µg/mL (≈ 31.6 µM) | > 200 µg/mL | – | 200 µg/mL (≈ 343 µM) | Non-toxic | –
